Measured values: patent US20170007568A1, “USE OF COMPOSITION CONTAINING IRON (II) AMINO ACID CHELATE IN PREPARATION OF DRUG FOR AMELIORATING DIABETES” (PROFEAT BIOTECHNOLOGY CO., LTD., priority 2014, published 2017)

What was measured:
Type in all cases: in vivo, C57BL/6JNR male mice
[1] = test system: type 2 diabetes mice (nicotinamide/streptozotocin + high fat diet); assay: Glycated hemoglobin (HbA1c) of drug-induced diabetic mice; conditions: dose not printed, one month
Procedure: (§1) C57BL/6JNR male mice at 6 weeks of age (purchased from National Laboratory Animal Center) were fed with normal diet for 1 week. Each of the mice was injected intraperitoneally with 240 mg/kg nicotinamide, and after 15 minutes, each of the mice was injected intraperitoneally with 100 mg/kg streptozotocin. Two days later, each of the mice was injected with nicotinamide and streptozotocin with the same dosages and method as shown above, followed by feeding with the high fat diet (60% fat). Two months later, the mice having fasting blood glucose higher than 140 mg/dl and impaired glucose tolerance (which meant that the blood glucose values were not measured within normal range after injecting glucose for 2 hours) were picked to be type 2 diabetes mice.
(§2) The mice were divided into 4 groups which included a control group (supplied with phosphate solution), a metformin (Met) group, a composition A1 with low dose (4 mg/kg/day) group, and a composition A1 with high dose (12 mg/kg/day) group. The weights of the mice were measured every 3 days, and the blood glucose values, oral glucose tolerance assay (OGTT), glycated hemoglobin (HbA1c) and insulin variances of the mice were measured every 4 weeks.
(§3) The blood glucose values were measured with a Chemistry Analyzer (Hitachi, Ltd., Japan). […] The insulin variance was measured with enzyme-linked immunosorbent assay (ELISA) (Mercodia, Ltd. Sweden).

[2] = test system: type 2 diabetes mice (nicotinamide/streptozotocin + high fat diet); assay: Insulin (ELISA) of drug-induced diabetic mice; conditions: dose not printed, one month
Procedure: as §1, §2, §3

[3] = test system: type 2 diabetes mice (nicotinamide/streptozotocin + high fat diet); assay: Fasting blood glucose of drug-induced diabetic mice; conditions: dose not printed, one month
Procedure: as §1, §2, §3

[4] = test system: type 2 diabetes mice (nicotinamide/streptozotocin + high fat diet); assay: HOMA-IR index of drug-induced diabetic mice; conditions: dose not printed, one month
Procedure: as §1, §2
The index of homeostasis model assessment for insulin resistance (HOMA-IR) was calculated from the following formula:
HOMA-IR index=insulin (μU/ml)×glucose (mmol/L)/22.5.

[5] = test system: type 2 diabetes mice (nicotinamide/streptozotocin + high fat diet); assay: Oral glucose tolerance assay (OGTT) in drug-induced diabetic mice; conditions: metformin group, dose not given
Procedure: as §1, §2, §3

Row | SMILES | Glycated hemoglobin (HbA1c) [1] | insulin [2] | Fasting blood glucose [3] | HOMA-IR [4] | glucose tolerance (OGTT) [5] | HOMA-IR ([4]; listed as metformin)
1 | NCC(=O)O [Glycine] | 3.71 ± 0.03 | 12.47 ± 2.36 | 182.88 ± 11.20 | 5.23 ± 1.73 | – | –
2 | CN(C)C(=N)N=C(N)N [Metformin] | 3.57 ± 0.04 | 11.11 ± 6.47 | 169.00 ± 10.77 | 4.53 ± 1.42 | improved | 4.53
